Test results from patent US20040152868A1, “Compositions and methods for modulating guanylyl cyclase signaling receptor (gc-c) activity and for treating meniere's disease” (priority 2001, published 2004).
Where two headings read alike, the source gives them in different places. Bridge positions count the residues as written; N and C are the ends. Square brackets hold non-standard residues; d marks the D form. Ends that are not written are not given here. Peptide text beside a SMILES is read from it. 2Nal = N[C@@H](Cc1ccc2ccccc2c1)C(=O)O

What was measured:
[1] = otoacoustic emission (DP-gram) in rats after 14 days i.p. infusion; type: in vivo, rat
Method: In this example, rats were given 8 nmol/kg/h of Compound 1 intraperitoneally for 14 days via Alzet osmotic pumps. Otoacoustic emissions were measured before treatment and at the end of treatment. Urine samples were collected during infusion, and the natriuretic effect of Compound 1 was measured by flame spectroscopy.
18 female Sprague-Dawley rats weighing 250 g each were divided into two groups. In total, 8 control animals received vehicle and 10 animals received COMPOUND 1. During the experiment the animals had free access to food and water.
Prior to the study COMPOUND 1 was dissolved in 50 mM phosphate buffer pH 4.0 containing 1% BSA and loaded into Alzet osmotic pumps. The pumps were then surgically inserted into the peritoneum of the rats administering 8 nmol/kg/h for 14 days. After insertion of the pumps the animals were placed in metabolic cages for a week, and samples of urine were collected every 24 hrs from Day 0 through Day 6.
The rats were all tested before the start of the study and at the end of the study. […]
The only DPOAE measured were the amplitude of cubic distortion product 2f1-f2, and always with the level of f1 (L1) 10 dB higher than the level of f2 (L2=L1-10 dB). The output of the ER-10B microphone was feed to a B&K (Nexus) amplifier and analysed on an HP 35670A spectrum. […]

[2] = target: T1, guanylyl cyclase (GC-C) receptor (Homo sapiens, UniProt P25092); experiment: cGMP-efficacy on T84 cells (stimulation of cGMP formation); type: cell-based; settings: cGMP formation in T84 cells; for EC50: efficacy assay of Example 1
T1 construct: stimulation of cGMP in T84 cell cultures may be used as an efficacy assay; endogenous in cells; host or cells: T84 (human colon carcinoma cell line)
Method: T84 cells are grown to near confluence in DMEM medium and Ham's F-12 medium (1:1) supplemented with 5% Foetal Calf Serum (FCS), […] in 175 cm^2 culture flasks (Nunc) at 37° C., 5% CO2 and 100% humidity. Cells are harvested in ice-cold PBS and centrifuged at 100×G for 10 min at 4° C. The sedimented cells are lysed in 2.5 ml dist. H2O/culture flask at 0° C. for 30 min and centrifuged at 50,000×G 4° C. for 45 min. The membrane pellet is taken up in binding buffer (50 mM HEPES, 1 mM EDTA, 10 mM MgCl2, pH 7.4) supplemented with 10% sucrose and stored at −80° C. until use.
For stimulation of cGMP formation, cells are seeded in 96-well microtiter plates (Nunc) at a density of 2500 cells/well (˜7576 cells/cm^2) and grown for 3 days before use under the same culture conditions mentioned above.
On the day of analysis growth medium is removed and the T84 cells are washed twice in Dulbeccos Phosphate Buffered Saline™ (D-PBS) containing 6 mM glucose at 37° C. Cells are then incubated at 37° C. for 40 min in the same medium supplemented with 2 mM IBMX (a phosphodiesterase inhibitor) and increasing concentrations of test compounds. The reaction is stopped by addition of ice-cold 20 μl 0.50 M HCl and incubation on ice for further 20 min. 20 μl of the acid extract is used for determination of cGMP by the FlashPlate™ technique and another 20 μl is used for determination of protein content.
Data from the cGMP experiments are treated in an analogueous way and fitted to:
f=(cGMPmax−cGMPbasic)*s/(s+EC50)+cGMPbasic
where cGMPmax is maximal obtainable cGMP and cGMPbasic is the basic level of cellular cGMP. EC50 is the concentration giving half maximum effect and s the concentration of test compound. […]

[3] = standard diuresis assay / renal clearance in conscious rats with arterial pressure and heart rate recording; type: in vivo, rat
Method: Male Sprague-Dawley rats weighing 350-370 g (M&B, Denmark) were anaesthetized with a subcutaneous injection of 2 ml/kg of a 1:1 mixture of Hypnorm® (fentanyl citrate 0.315 mg/ml and fluanisone 10 mg/ml) and Dormicum® (midazolam 5 mg/ml) diluted 1:1 in distilled water. Permanent catheters were inserted into the femoral vein and artery. The i.v. line is used for i.v. infusion and the arterial line is used for continuous intra-arterial blood pressure recording and withdrawal of blood samples. A permanent supra-pubic catheter was inserted into the urinary bladder, which allowed fractionated urine collection and determination of urine flow rate. Animals were allowed about one week of recovery before they were used for experiments.
On the day of the experiment, the rat was placed in a lucid restrainer. […] To obtain a stable urine production under these conditions, the rat was slightly water loaded by i.v. infusion of a hypotonic glucose solution (150 mM glucose; 100 μl/min the first 15 min, then 25 μl/min throughout the experiment). The arterial line was connected to a pressure transducer (Baxter Truware: PX-260 Uden, Netherlands) and the pulsatile arterial blood pressure was amplified (×1.000-10.000) via a Hugo Sachs Electronic Tranducer Amplifier Module model 705/1. The analogue signal was digitalized via a 12 bit data acquisition board (Data Translation model DT321) and sampled at 1000 Hz using the Notocord HEM version 4 software for Windows NT. The systolic peak pressure triggered a software heart rate module that calculated heart rate beat-to-beat.
After a 60 minutes equilibration period, fractionated collection of urine was started (t=0). After 4 control periods (4×15 minutes), a bolus injection of Mouse-Guanylin-Asp—OH, 10 μmol/kg i.v was administered and collection of urine was collected in 15 minute periods for 3 hours (period […]). Urine volume was measured gravimetrically. The urine samples were stored at −20° C. until further analysis. Urine was analysed for sodium and potassium using a using a flame spectrophotometer (Instrumentation Laboratory, model IL 943).

[4] = rat, in vivo; cited from earlier work
[5] = target: T1, guanylyl cyclase (GC-C) receptor; settings: T84 cells, reported values; cited from earlier work

T1 sequence (P25092 24-1073): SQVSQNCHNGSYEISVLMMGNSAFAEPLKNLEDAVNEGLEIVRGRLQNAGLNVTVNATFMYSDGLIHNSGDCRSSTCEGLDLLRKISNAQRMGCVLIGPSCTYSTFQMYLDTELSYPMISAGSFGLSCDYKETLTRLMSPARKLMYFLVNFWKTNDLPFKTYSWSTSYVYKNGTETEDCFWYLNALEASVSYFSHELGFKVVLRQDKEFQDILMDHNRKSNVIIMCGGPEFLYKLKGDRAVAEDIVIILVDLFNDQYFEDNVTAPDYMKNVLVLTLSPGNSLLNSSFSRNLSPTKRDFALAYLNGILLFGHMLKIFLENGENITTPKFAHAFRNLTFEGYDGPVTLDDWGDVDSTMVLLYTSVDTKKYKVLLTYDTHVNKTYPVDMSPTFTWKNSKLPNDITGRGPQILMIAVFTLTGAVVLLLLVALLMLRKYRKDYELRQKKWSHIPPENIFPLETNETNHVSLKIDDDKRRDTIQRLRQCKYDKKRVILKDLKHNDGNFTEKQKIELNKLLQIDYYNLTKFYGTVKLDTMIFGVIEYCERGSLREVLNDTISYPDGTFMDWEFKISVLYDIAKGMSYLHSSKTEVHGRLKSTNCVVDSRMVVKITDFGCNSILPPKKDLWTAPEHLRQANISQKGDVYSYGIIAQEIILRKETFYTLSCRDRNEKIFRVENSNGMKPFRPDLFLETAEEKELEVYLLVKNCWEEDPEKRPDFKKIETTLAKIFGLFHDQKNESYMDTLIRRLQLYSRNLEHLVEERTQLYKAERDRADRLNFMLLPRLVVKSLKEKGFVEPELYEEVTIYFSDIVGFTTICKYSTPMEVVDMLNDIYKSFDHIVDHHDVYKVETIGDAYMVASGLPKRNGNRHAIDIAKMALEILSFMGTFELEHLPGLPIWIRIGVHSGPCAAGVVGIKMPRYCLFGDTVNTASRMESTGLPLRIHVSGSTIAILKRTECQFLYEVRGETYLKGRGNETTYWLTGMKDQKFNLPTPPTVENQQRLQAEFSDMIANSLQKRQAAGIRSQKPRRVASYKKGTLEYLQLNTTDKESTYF

In the case of `CC[C@H](C)[C@@H]1NC(=O)[C@H](CCC(=O)O)NC(=O)[C@@H](NC(=O)[C@@H](NC(=O)[C@H](CC(N)=O)NC(=O)[C@@H]2CCCN2)[C@@H](C)O)CSSC[C@@H]2NC(=O)[C@H](C)NC(=O)[C@H](C)NC(=O)[C@H](Cc3ccc(O)cc3)NC(=O)[C@H](C)NC(=O)[C@H](CSSC[C@@H](C(N)=O)NC(=O)CNC(=O)[C@H]([C@@H](C)O)NC2=O)NC1=O` [Compound 1, Mouse-Guanylin-NH2, H-PNTC*EICAYAAC*TGC-NH2 (double oxidised C to C and C* to C*)] (H-PNTCEICAYAACTGC-NH2; disulfide 4-12, 7-15), the “otoacoustic emission at 14 to 16 kHz” value ([1]; 8 nmol/kg/h intraperitoneally for 14 days via Alzet osmotic pumps) is reported as “significant decrease”, the “change in otoacoustic emission from before to after treatment (2-way ANOVA)” value ([1]; 14 days, most pronounced at the 14 kHz level) is reported as “significant decrease” and the EC50 ([2]; read-out: EC50) is reported as 6.1 µM.

Molecule `CC[C@H](C)[C@@H]1NC(=O)[C@H](CCC(=O)O)NC(=O)[C@@H](NC(=O)[C@@H](N)[C@@H](C)O)CSSC[C@@H]2NC(=O)[C@H](C)NC(=O)[C@H](C)NC(=O)[C@H](Cc3ccccc3)NC(=O)[C@H](C)NC(=O)[C@H](CSSC[C@@H](C(=O)N[C@@H](CC(C)C)C(N)=O)NC(=O)CNC(=O)[C@H]([C@@H](C)O)NC2=O)NC1=O` [Compound 5, des-Pro^1, des-Asn^2[Phe^9]Guanylin-L-NH2 (rat/mouse)] (H-TCEICAFAACTGCL-NH2; disulfide 2-10, 5-13 (inferred)) has an EC50 ([2]; read-out: EC50) of 28 µM.

Molecule `CC[C@H](C)[C@@H]1NC(=O)[C@H](CCC(=O)O)NC(=O)[C@@H](NC(=O)[C@@H](N)[C@@H](C)O)CSSC[C@@H]2NC(=O)[C@H](C)NC(=O)[C@H](C)NC(=O)[C@H](Cc3ccc4ccccc4c3)NC(=O)[C@H](C)NC(=O)[C@H](CSSC[C@@H](C(=O)N[C@@H](CC(C)C)C(N)=O)NC(=O)CNC(=O)[C@H]([C@@H](C)O)NC2=O)NC1=O` [Compound 6, des-Pro^1, des-Asn^2[2-Nal^9]Guanylin-L-NH2 (rat/mouse)] (H-TCEICA[2Nal]AACTGCL-NH2; disulfide 2-10, 5-13) has an EC50 ([2]; read-out: EC50) greater than 100 µM.

In the case of `CC[C@H](C)[C@@H]1NC(=O)[C@H](CCC(=O)O)NC(=O)[C@@H](NC(=O)[C@@H](N)[C@@H](C)O)CSSC[C@@H]2NC(=O)[C@H](C)NC(=O)[C@H](C)NC(=O)[C@H](Cc3ccc(O)cc3)NC(=O)[C@H](C)NC(=O)[C@H](CSSC[C@@H](C(=O)N[C@@H](CC(C)C)C(=O)N[C@@H](CCCCN)C(=O)N[C@@H](CCCCN)C(N)=O)NC(=O)CNC(=O)[C@H]([C@@H](C)O)NC2=O)NC1=O` [Compound 8, des-Pro^1, des-Asn^2Guanylin-LKK-NH2 fully oxidised(1-3, 2-4) (rat/mouse): H-TCEICAYAACTGCLKK-NH2 oxidised(1-3, 2-4)] (H-TCEICAYAACTGCLKK-NH2; disulfide 2-10, 5-13), the EC50 ([2]; read-out: EC50) is reported as 29 µM.

With “Cyclo(Gly-Glu-Ile-Gly-Ala-Tyr-Ala-Ala-Gly-Thr-Gly-Gln-) (GEIGAYAAGTGQ; cyclic; printed: Gly-Glu-Ile-Gly-Ala-Tyr-Ala-Ala-Gly-Thr-Gly-Gln-) [Compound 4]” the EC50 [2] was “No effect”.

For “Guanylin-Asp-Lys6-NH2 (rat/mouse) [Compound 12]”, the “agonist character at GC-C” value [2] was “potent agonist”.

For Mouse-Guanylin-Asp-OH [Compound 13], the “effect on heart rate” value ([3]; conscious rats, 10 μmol/kg i.v.) was “no effect”, the “increase in mean arterial blood pressure” value ([3]; conscious rats, 10 μmol/kg i.v. bolus, immediate and sustained) was 15-20 mmHg and the “effect on urinary potassium excretion rate” value ([3]; rats, 10 μmol/kg i.v.) was “rapid and transient increase”. For the same molecule, the “effect on urinary sodium excretion rate” value ([3]; rats, 10 μmol/kg i.v.) was “immediate and sustained increase” and the “effect on urine flow rate” value ([3]; rats, 10 μmol/kg i.v.) was “rapid and transient increase”.

In the case of “SPNFIWK [Compound 3, H-Ser-Pro-Asn-Phe-Ile-Trp-Lys—NH2]”, the EC50 [2] is reported as “No effect”.

With “des-Pro^1, des-Asn^2Guanylin-LKK-NH2 mono oxidised(1-3) (rat/mouse) [Compound 7]” the EC50 [2] was “No effect”.

In the case of “guanylin (PGTCEICAYAACTGC; ends and bridges not checked; cysteine pairing not given here; UniProt Q02747 101-115, looked up)”, the “diuretic, natriuretic and kaliuretic effect” value [4] is given as “substantial diuretic, natriuretic and kaliuretic effect” and the “increase in cGMP production reported” value [5] is given as 300 fold.

For “uroguanylin (NDDCELCVNVACTGCL; ends and bridges not checked; cysteine pairing not given here; UniProt Q16661 97-112, looked up) [synthetic uroguanylin, member of the guanylin peptide family]”, the “increase in cGMP production reported” value [5] is given as 300 fold.
